# Target: T1, Cloned Human Dopamine D3 Receptors (Homo sapiens, UniProt P35462)
# T1 construct: expressed in transfected cells; membrane homogenate
# Assay: [N-Methyl-3H]Spiroperidol binding to cloned human dopamine D3 receptors
# Settings: D3 Ki (nM)
# Excerpt: [N-Methyl-^3H]Spiroperidol Binding to Cloned Human Dopamine D3 Receptors
# This assay measures the in vitro activity of compounds on cloned human dopamine (D3) receptors and predicts the direct dopamine-blocking properties of putative neuropsychiatric agents at human dopamine D3 receptors.
# The D3 gene was isolated from a human striatal cDNA library (Stratagene). The gene was sequenced and sub-cloned into the expression vector RC/RSV (Invitrogen). CHO (Chinese Hamster Ovary) cells were stably transfected with 10 µg of the D3/RSV plasmid using the DOTAP method from Boehringer Mannheim and 72 clones that were G418 resistant were isolated. Using mRNA and binding displacement data a single high expressing clone was identified. This clone was then grown in large batches for the purpose of developing a 96 well format assay.
# • 1. One plate (10 cm) with approximately 2-3 million D3 cells per plate is incubated with 1 ml of Trypsin-EDTA at room temperature for -2 min or until cells have lifted off plates. Four ml of Ham's F12 + 10% Fetal Bovine Serum + 1% Penicillin/Streptomycin + G418 (400 µg/ml) medium are added to resuspend cells and 1 ml of this is added to each large plate (15 cm) containing 19 ml of the same medium as mentioned above. • 2. The 5 large plates are incubated at 37°C + 5% CO2 for - 3 days or until the cells are confluent. • 3. After these plates are confluent, they are split into 10 large plates. Medium is aspirated off, 2 ml of Trypsin-EDTA are added to each plate and plates are incubated at RT for 2 min or until cells have lifted off the plate. Eight ml of the F12 medium (same medium as #1 above) are added to each plate (10 ml total) to resuspend the cells and 5 ml are transferred to the 2 new plates containing 15 ml of the F12 media. • 4. The 10 large plates are incubated at 37°C + 5% CO2 for ∼ 2 days or until the cells are confluent. • 5. The 10 large plates are split into 60 large plates (using Trypsin-EDTA as #3 except 4 ml of F12 medium are added to resuspend cells and 1 ml is aliquoted to 6 new plates containing 19 ml of F12 medium each). • 6. Plates are incubated at 37°C + 5% CO2 for - 3 days or until cell are confluent. • 7. The 60 large plates are then split into 60 roller bottles (100-150 million cells/bottle). Medium is aspirated off , 2 ml of Trypsin-EDTA are added to each plate and incubated at RT for -2 minutes or until cells have lifted off plates. Eight ml of F12 medium are added to each plate to resuspend cells and the entire 10 ml are added to 1 roller bottle containing 90 ml of the F12 medium. • 8. The 60 roller bottles are immediately placed on their sides and transferred to the roller bottle incubator. They are incubated at 37°C + 5% CO2 for ~ 3-5 days. Cells are spun at 30-40% motor speed in the Forma incubator. • 9. Medium is poured off and cells are washed 2X in PBS. • 10. Cells are then scraped off in 20 ml of PBS and the bottles are rinsed again with 5 ml of PBS to remove any remaining cells. Cells are stored on ice before membrane prepration. • 11. The yield for 60 D3 roller bottles has varied from - 260-500 mg. Note: All tissue culture reagents are from Gibco-BRL.
# The cells are harvested into 250 ml centrifuge tubes with 100 volumes of cold phosphate buffered saline (PBS) and spun down (1200xG for 10 min at 4°C). The medium is removed and 100 ml PBS are added to each centrifuge tube, cells are resuspened and spun down again. The PBS is removed and the final pellet is homogenized in an appropriate volume of 10% DMSO with a polytron on ice at a medium setting.
# A 200 µl sample membrane homogenate is added to 200 µl of 1% SDS, vortexed and allowed to stand for 5 min. Aliquots (25, 50 and 100 µl) of this mixture are assayed in duplicate following the standard Bio-Rad DC protein assay protocol (kit catalog number 500-0112) and using reagent S. Absorbance readings are made at 750 nm (note: the most accurate protein OD readings are between 0.1-0.5 units). […]
# T1 sequence (P35462 whole entry): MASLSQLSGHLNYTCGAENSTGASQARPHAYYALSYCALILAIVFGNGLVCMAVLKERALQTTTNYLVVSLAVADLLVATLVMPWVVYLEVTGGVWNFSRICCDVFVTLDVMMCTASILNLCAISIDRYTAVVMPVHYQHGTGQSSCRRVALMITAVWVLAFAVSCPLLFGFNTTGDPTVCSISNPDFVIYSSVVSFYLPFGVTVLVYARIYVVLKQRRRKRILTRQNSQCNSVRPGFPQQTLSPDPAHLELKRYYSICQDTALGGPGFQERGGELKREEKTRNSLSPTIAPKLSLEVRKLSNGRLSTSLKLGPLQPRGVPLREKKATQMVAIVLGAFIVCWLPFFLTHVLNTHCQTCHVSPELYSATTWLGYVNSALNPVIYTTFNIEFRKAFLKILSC
row,Structure (SMILES),Ki [nM]
1,"CN1CCCC1CCNC(=O)[C@H]1C[C@@H]1CN1CCC(c2noc3ccsc23)CC1 (single isomer, unassigned) [compound 832514]",115
2,O=C(NC1CCN(CCc2cccc(Cl)c2)CC1)C1CC1CN1CCC(c2noc3ccsc23)CC1 (stereo not drawn) [832573FH],4.52
3,O=C(NCCCc1nc2ccccc2[nH]1)[C@@H]1C[C@H]1CN1CCC(c2noc3ccsc23)CC1 [832574FH],57.3
4,Cn1nc(C2CCN(C[C@@H]3C[C@H]3C(=O)NCCCN3CCCCC3)CC2)c2cc(C(F)(F)F)ccc21 [833585ES],5.86
5,CN1C2CCC1CC(NC(=O)C1CC1CN1CCC(c3nn(C)c4c(C(F)(F)F)cccc34)CC1)C2 (stereo not drawn) [A002328941],23.9

# Same assay, conditions: Table 2; unit inferred; read-out: d3Ki
row,Structure (SMILES),Ki [nM]
1,CC1CCC(NC(=O)C2CC2CN2CCN(c3ccc(C(F)(F)F)cc3)CC2)CC1 (stereo not drawn) [817039A],35
2,CCC1CCC(NC(=O)C2CC2CN2CCN(c3ccc(C(F)(F)F)cc3)CC2)CC1 (stereo not drawn) [817043A],18.6
3,CC[C@H]1CC[C@H](NC(=O)[C@@H]2C[C@H]2CN2CCN(c3ccc(Cl)c(Cl)c3)CC2)CC1 [817090A],5.04
4,CC[C@H]1CC[C@H](NC(=O)[C@@H]2C[C@H]2CN2CCN(c3cc(C)ccc3C)CC2)CC1 [817102A],7.57
5,Cc1ccccc1N1CCN(C[C@@H]2C[C@H]2C(=O)N[C@H]2CC[C@H](C)CC2)CC1 [817478A],1.99
6,CCC1CCC(NC(=O)C2CC2CN2CCN(c3ncc(C(F)(F)F)cc3Cl)CC2)CC1 (stereo not drawn) [817480A],5.33
7,C[C@H]1CC[C@H](NC(=O)[C@@H]2C[C@H]2CN2CCN(c3csc4cc(C(F)(F)F)ccc34)CC2)CC1 [817569A],5.38
8,CCC1CCC(NC(=O)C2CC2CN2CCN(c3cc(C)ccc3C)CC2)CC1 (stereo not drawn) [817570A],5.04
9,CCC1CCC(NC(=O)C2CC2CN2CCN(c3ccc(C)cc3C)CC2)CC1 (stereo not drawn) [817571A],11.5
10,C[C@H]1CC[C@H](NC(=O)[C@H]2C[C@@H]2CN2CCN(c3csc4cc(C(F)(F)F)ccc34)CC2)CC1 [(+)-816589],1070
11,C[C@H]1CC[C@H](NC(=O)[C@@H]2C[C@H]2CN2CCN(c3csc4cc(C(F)(F)F)ccc34)CC2)CC1 [(-)-817569],2.62
12,O=C(CCCCN1CCN(c2csc3cc(F)ccc23)CC1)Nc1ccc(F)cc1 [compound 813384],74
13,CCCN(C(=O)CCCCN1CCN(c2csc3cc(F)ccc23)CC1)c1ccc(F)cc1 [compound 814648],39.6
14,O=C(CCCCN1CCN(c2csc3cc(F)ccc23)CC1)N(Cc1ccccc1)c1ccc(F)cc1 [compound 814649],38.9
15,C[C@H]1CC[C@H](NC(=O)[C@@H]2C[C@H]2CN2CCN(c3csc4cc(C(F)(F)F)ccc34)CC2)CC1 [compound 815916],5
16,CCOC(=O)[C@H]1CC[C@H](NC(=O)[C@@H]2C[C@H]2CN2CCN(c3csc4cc(C(F)(F)F)ccc34)CC2)CC1 [compound 815917],18
17,CC[C@H]1CC[C@H](NC(=O)[C@@H]2C[C@H]2CN2CCN(c3csc4cc(C(F)(F)F)ccc34)CC2)CC1 [compound 815918],15
18,CC1CCC(NC(=O)C2CC2CN2CCN(c3cccc(Cl)c3Cl)CC2)CC1 (stereo not drawn) [compound 817037],0.98
19,COc1ccc(Cl)cc1N1CCN(CC2CC2C(=O)NC2CCC(C)CC2)CC1 (stereo not drawn) [compound 817038],0.952
20,CC1CCC(NC(=O)C2CC2CN2CCN(c3ccc(C(F)(F)F)cc3)CC2)CC1 (stereo not drawn) [compound 817039],14.8

# Same assay, conditions: d3Ki, Table 2; unit inferred
row,Structure (SMILES),Ki [nM]
1,C[C@H]1CC[C@H](NC(=O)[C@@H]2C[C@H]2CN2CCN(c3noc4ccsc34)CC2)CC1 [817892A],3.02

# Same assay, conditions: read-out: D3 Ki
row,Structure (SMILES),Ki [nM]
1,CN1CCCC1CCNC(=O)[C@@H]1C[C@H]1CN1CCC(c2noc3ccsc23)CC1 (mixture of isomers) [compound 831936],34.7
2,CC(C)(C)OC(=O)N1CCCC(CNC(=O)[C@@H]2C[C@H]2CN2CCC(c3noc4ccsc34)CC2)C1 (mixture of isomers) [compound 833374],30.6
3,O=C(NCC1CCCNC1)[C@@H]1C[C@H]1CN1CCC(c2noc3ccsc23)CC1 (mixture of isomers) [compound 833385],3.31
4,"C[C@H]1CC[C@H](NC(=O)[C@@H]2C[C@H]2CN2CCC(c3cc4ccccc4s3)CC2)CC1 (relative stereo) [compound 831148, 2R-(4-Benzo[b]thiophen-2-yl-piperidin-1-ylmethyl)-1R-cyclopranecarboxylic acid (trans-4-methyl-cyclohexyl)-amide]",0.454
5,COCCN1CCN(C(=O)[C@@H]2C[C@H]2CN2CCN(c3nn(C)c4ccc(OC)cc34)CC2)CC1 [832748FH],79.1
6,O=C(NCCCN1CCCCC1)[C@@H]1C[C@H]1CN1CCN(c2nn(-c3ccc(C(F)(F)F)cc3)c3ccsc23)CC1 [A002201942],30.2
7,Cn1nc(N2CCN(C[C@@H]3C[C@H]3C(=O)NCCCN3CCOCC3)CC2)c2sccc21 [A002202402],47.3
8,O=C(NCCCN1CCCCC1)[C@@H]1C[C@H]1CN1CCC(c2nn(CC(F)(F)F)c3ccsc23)CC1 [A002328969],137
9,O=C([C@@H]1C[C@H]1CN1CCC(c2nn(CC(F)(F)F)c3ccsc23)CC1)N1CCC(Cn2ccnc2)CC1 [A002328970],36.2
10,Cn1nc(C2CCN(C[C@@H]3C[C@H]3C(=O)NCCCN3CCCCC3)CC2)c2cccc(C(F)(F)F)c21 [A002329092],321
11,Cn1nc(C2CCN(C[C@@H]3C[C@H]3C(=O)NCCCn3ccnc3)CC2)c2cccc(C(F)(F)F)c21 [A002329093],411
12,Cn1nc(N2CCN(C[C@@H]3C[C@H]3C(=O)NCCCN3CCSCC3)CC2)c2sccc21 [A002350370],81.2
13,Cn1nc(C2CCN(C[C@@H]3C[C@H]3C(=O)N3CCC(Cn4ccnc4)CC3)CC2)c2sccc21 [A002436292],129
14,O=C(NC1CCN(Cc2ccc(F)c(F)c2)CC1)[C@@H]1C[C@H]1CN1CCN(c2nn(-c3ccc(OC(F)(F)F)cc3)c3ccsc23)CC1 [A002437083],11
15,O=C(NCCCn1ccnc1)[C@@H]1C[C@H]1CN1CCN(c2nc3cccc4c3n2CCC4)CC1 [A002437350],16.2
16,CN1CCN(CCCNC(=O)[C@@H]2C[C@H]2CN2CCN(c3nc4cccc5c4n3CCC5)CC2)CC1 [A002439100],552
17,CC(C)(C)OC(=O)N1CCC(CNC(=O)[C@@H]2C[C@H]2CN2CCC(c3noc4c(C(F)(F)F)cccc34)CC2)CC1 [A002439261],55.3
18,CN1CCN(CCCNC(=O)[C@@H]2C[C@H]2CN2CCC(c3nn(CC(F)(F)F)c4ccsc34)CC2)CC1 [A002439265],88

# Same assay, conditions: read-out: d3Ki
row,Structure (SMILES),Ki [nM]
1,O=C(N[C@H]1CC[C@H](C(=O)O)CC1)[C@@H]1C[C@H]1CN1CCN(c2csc3cc(C(F)(F)F)ccc23)CC1 [816078A],89.7
2,O=C(NCc1nc2ccccc2[nH]1)[C@@H]1CCC[C@H]1N1CCN(c2csc3cc(F)ccc23)CC1 [825826G],32.5
3,O=C(NCC1CC1)[C@@H]1CCC[C@H]1N1CCN(c2csc3cc(F)ccc23)CC1 [825829G],40.1
4,O=C(NCc1cccnc1)[C@@H]1CCC[C@H]1N1CCN(c2csc3cc(F)ccc23)CC1 [825834G],6.9
5,O=C(N[C@H]1CC[C@H](O)CC1)[C@@H]1C[C@H]1CN1CCN(c2csc3cc(C(F)(F)F)ccc23)CC1 [compound 816592],11
6,O=C(NC1CCC(CO)CC1)C1CC1CN1CCN(c2csc3cc(C(F)(F)F)ccc23)CC1 (stereo not drawn) [compound 816593],7.47

# Same assay, conditions: the 17th table; read-out: D3 Ki
row,Structure (SMILES),Ki [nM]
1,C[C@H]1CC[C@H](N2CC(CN3CCN(c4noc5ccsc45)CC3)CC2=O)CC1 (stereo partly drawn) [832831 DA],154

# Source: patent publication EP1935887A1, “Heterocyclic substituted carbonyl derivatives and their use as dopamine D3 receptor ligands” (Aventis Pharmaceuticals Inc., priority 2001, dated 2002)
